Experimental data reported in paper PMC3717557 (Journal of medicinal chemistry, 2012).
Converted amounts (≈) assume the structure as drawn. Read-outs that look alike come from different tables or passages of the source.

Legend:
human α1β3 GABAAR = biological target: T1, human α1β3 GABAAR (Homo sapiens, UniProt P14867+P28472); settings: cited from earlier work
T1 sequence (P14867 28-456): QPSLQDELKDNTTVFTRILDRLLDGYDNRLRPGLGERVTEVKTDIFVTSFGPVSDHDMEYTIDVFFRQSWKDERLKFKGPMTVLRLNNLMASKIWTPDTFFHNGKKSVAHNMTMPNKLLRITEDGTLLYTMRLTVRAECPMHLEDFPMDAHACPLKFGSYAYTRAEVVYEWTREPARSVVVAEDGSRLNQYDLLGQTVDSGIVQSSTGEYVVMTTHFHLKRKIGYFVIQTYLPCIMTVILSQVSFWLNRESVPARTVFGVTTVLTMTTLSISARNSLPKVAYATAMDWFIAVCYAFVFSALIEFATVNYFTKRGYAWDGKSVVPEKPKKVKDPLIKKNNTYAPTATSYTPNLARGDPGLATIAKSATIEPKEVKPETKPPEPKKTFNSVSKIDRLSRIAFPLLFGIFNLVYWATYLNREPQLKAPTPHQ
T1 sequence (P28472 26-473): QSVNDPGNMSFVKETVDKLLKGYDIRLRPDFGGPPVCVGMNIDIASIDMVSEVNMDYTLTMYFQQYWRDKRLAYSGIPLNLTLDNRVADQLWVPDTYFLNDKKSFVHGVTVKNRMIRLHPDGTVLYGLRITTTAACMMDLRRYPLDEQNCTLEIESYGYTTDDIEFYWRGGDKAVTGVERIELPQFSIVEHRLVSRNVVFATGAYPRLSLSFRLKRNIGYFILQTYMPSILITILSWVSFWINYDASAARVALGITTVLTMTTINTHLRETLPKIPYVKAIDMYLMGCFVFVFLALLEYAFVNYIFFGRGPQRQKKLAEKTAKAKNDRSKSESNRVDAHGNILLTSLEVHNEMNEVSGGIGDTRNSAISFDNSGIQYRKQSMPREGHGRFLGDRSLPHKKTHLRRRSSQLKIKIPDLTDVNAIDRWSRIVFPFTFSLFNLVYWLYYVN

[1] = pKa of NH proton by UV absorbance pH titration; format: physicochemical; settings: dilute phosphate buffer
[2] = Stability in buffer at 4°C; format: physicochemical; settings: 0.01 M Tris/HCl pH 7.4, concentration close to saturation
tadpoles = settings: cited from earlier work
[3] = biological target: human α1β2γ2L GABAA receptor (Homo sapiens, UniProt P14867+P18507+P47870); format: cell-based
[4] = cited from earlier work
[5] = cited from earlier work; remark: listed apart in the source
[6] = cited from earlier work; remark: listed apart in the source
GABAA receptor = settings: concentrations close to anesthetic EC50 (65 μM); cited from earlier work
[7] = read-out: EC50, tadpole loss of righting reflex
[8] = read-out: general anesthetic EC50

Chain of human α1β2γ2L GABAA receptor (P47870 25-512 limits assumed, one chain of several): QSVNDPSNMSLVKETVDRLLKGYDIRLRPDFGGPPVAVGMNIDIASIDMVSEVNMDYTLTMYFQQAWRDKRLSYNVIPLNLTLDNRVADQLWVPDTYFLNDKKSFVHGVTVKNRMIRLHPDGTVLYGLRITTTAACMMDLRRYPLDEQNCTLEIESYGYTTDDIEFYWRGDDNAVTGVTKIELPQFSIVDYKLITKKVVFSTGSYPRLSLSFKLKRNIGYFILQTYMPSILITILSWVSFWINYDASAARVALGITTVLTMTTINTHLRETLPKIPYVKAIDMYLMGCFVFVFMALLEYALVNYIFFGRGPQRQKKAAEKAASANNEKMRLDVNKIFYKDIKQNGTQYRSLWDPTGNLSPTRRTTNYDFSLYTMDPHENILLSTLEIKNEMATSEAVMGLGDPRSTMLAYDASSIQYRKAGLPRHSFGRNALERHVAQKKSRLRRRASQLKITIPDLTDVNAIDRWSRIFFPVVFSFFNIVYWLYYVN
Chain of human α1β2γ2L GABAA receptor (P18507 40-475, one chain of several): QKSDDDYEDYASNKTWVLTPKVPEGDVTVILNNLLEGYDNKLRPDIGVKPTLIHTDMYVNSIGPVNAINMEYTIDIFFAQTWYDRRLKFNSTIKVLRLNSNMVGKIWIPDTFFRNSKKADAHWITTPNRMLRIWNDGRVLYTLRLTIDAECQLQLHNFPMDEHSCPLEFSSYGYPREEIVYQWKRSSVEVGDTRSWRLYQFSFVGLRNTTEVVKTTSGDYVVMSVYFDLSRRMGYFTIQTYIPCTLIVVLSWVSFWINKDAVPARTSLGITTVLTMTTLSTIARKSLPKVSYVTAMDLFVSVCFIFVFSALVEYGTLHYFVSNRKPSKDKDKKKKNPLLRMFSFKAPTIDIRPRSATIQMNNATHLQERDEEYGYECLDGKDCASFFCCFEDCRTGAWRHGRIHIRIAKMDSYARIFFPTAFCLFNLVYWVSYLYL

C[C@H](c1ccccc1)n1cncc1C(=O)OCc1ccc(C2(C(F)(F)F)N=N2)cc1 [aryldiazirine analog of etomidate]
efficiency of α1β3 GABAAR subunit photolabeling (human α1β3 GABAAR): 0.5%

C=CCC1(c2cccc(C3(C(F)(F)F)N=N3)c2)C(=O)NC(=O)N(C)C1=O (racemic) [(±)-14, (±)-5-Allyl-1-methyl-5-[3-(3-trifluoromethyl-3H-diazirin-3-yl)-phenyl]-pyrimidine-2,4,6-trione]
pKa [1]: 7.48 ± 0.08
time stable in buffer [2]: at least 2.5 days

CCC1(c2ccccc2)C(=O)NC(=O)NC1=O [phenobarbital]
EC50 (tadpoles; [7]): 3300 µM

C=CC[C@@]1(c2cccc(C3(C(F)(F)F)N=N3)c2)C(=O)NC(=O)N(C)C1=O [R-(−)-14]
GABA nH in the presence of compound ([3]; 8 μM compound): 1.0 ± 0.1

CCOC(=O)c1cncn1[C@H](C)c1ccccc1 [R-(+)-etomidate]
EC50 (tadpoles; [8]): 2.3 µM

CCC1(c2ccccc2)C(=O)NC(=O)N(C)C1=O (stereo not drawn) [mephobarbital]
octanol/water partition coefficient [4]: 69
EC50 (tadpoles; [7]): 90 µM
pKa [5]: 7.65
solubility in water [6]: 600 µM (≈ 148 µg/mL)

CC(C)c1cccc(C(C)C)c1O [propofol]
EC50 (tadpoles; [8]): 2.2 µM

NCCCC(=O)O [GABA, γ-aminobutyric acid]
GABA concentration response nH ([3]; GABA alone): 1.8 ± 0.1

CCCC(C)C1(CC)C(=O)NC(=O)NC1=O (stereo not drawn) [pentobarbital, 5-ethyl-5-(pentan-2-yl)pyrimidine-2,4,6(1H,3H,5H)-trione]
EC50 (tadpoles; read-out: EC50 producing anesthesia in tadpoles): ~140 µM
fold potentiation of 10 μM GABA currents (GABAA receptor): 4-6 fold

C=CCC1(C(C)C#CCC)C(=O)N=C(O)N(C)C1=O (stereo not drawn) [methohexital]
EC50 (tadpoles; [7]): 20 µM
